Source: PubChem BioAssay AID1963439 (Molecular Pharmacology Branch, DTP, NCI, 2024)
Where “and” joins values, the source holds several entries; their conditions need not be identical. Identical values can stand only once.

Test system: NCI-H196 complex spheroids with HUVEC/MSC, growth % T/C
Test: Anticancer human tumor NCI-H196 cell line growth inhibition [Asc];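 also: spheroids exposed to compound for 7 days before measurement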;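 as to viability, T/C: 100% = DMSO vehicle control wells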
Conditions: for viability, T/C: stronger effect = lower value
Summary of the method: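 Concentration series start at each agent's clinical Cmax, or at 10 microM when none is established, and drop in half-log steps; agents are applied alone or together to complex spheroids built with HUVEC and hMSC.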

[1] = curve of first compound, second compound 0.1 µM
[2] = curve of first compound, second compound 0.316 µM
[3] = curve of first compound, second compound 1 µM
[4] = curve of first compound, second compound 3.16 µM
[5] = curve of first compound, second compound 10 µM
[6] = second compound 0.1 µM, first compound 0.00316 µM
[7] = second compound 0.1 µM, first compound 0.01 µM
[8] = second compound 0.1 µM, first compound 0.0316 µM
[9] = second compound 0.1 µM, first compound 0.1 µM
[10] = second compound 0.1 µM, first compound 0.316 µM
[11] = second compound 0.1 µM, first compound 1 µM
[12] = second compound 0.316 µM, first compound 0.00316 µM
[13] = second compound 0.316 µM, first compound 0.01 µM
[14] = second compound 0.316 µM, first compound 0.0316 µM
[15] = second compound 0.316 µM, first compound 0.1 µM
[16] = second compound 0.316 µM, first compound 0.316 µM
[17] = second compound 0.316 µM, first compound 1 µM
[18] = second compound 1 µM, first compound 0.00316 µM
[19] = second compound 1 µM, first compound 0.01 µM
[20] = second compound 1 µM, first compound 0.0316 µM
[21] = second compound 1 µM, first compound 0.1 µM
[22] = second compound 1 µM, first compound 0.316 µM
[23] = second compound 1 µM, first compound 1 µM
[24] = second compound 3.16 µM, first compound 0.00316 µM
[25] = second compound 3.16 µM, first compound 0.01 µM
[26] = second compound 3.16 µM, first compound 0.0316 µM
[27] = second compound 3.16 µM, first compound 0.1 µM
[28] = second compound 3.16 µM, first compound 0.316 µM
[29] = second compound 3.16 µM, first compound 1 µM
[30] = second compound 10 µM, first compound 0.00316 µM
[31] = second compound 10 µM, first compound 0.01 µM
[32] = second compound 10 µM, first compound 0.0316 µM
[33] = second compound 10 µM, first compound 0.1 µM
[34] = second compound 10 µM, first compound 0.316 µM
[35] = second compound 10 µM, first compound 1 µM
[36] = curve of first compound, second compound 0.03 µM
[37] = curve of first compound, second compound 0.0949 µM
[38] = curve of first compound, second compound 0.3 µM
[39] = curve of first compound, second compound 0.949 µM
[40] = curve of first compound, second compound 3 µM
[41] = second compound 0.03 µM, first compound 0.0316 µM
[42] = second compound 0.03 µM, first compound 0.1 µM
[43] = second compound 0.03 µM, first compound 0.316 µM
[44] = second compound 0.03 µM, first compound 1 µM
[45] = second compound 0.0949 µM, first compound 0.0316 µM
[46] = second compound 0.0949 µM, first compound 0.1 µM
[47] = second compound 0.0949 µM, first compound 0.316 µM
[48] = second compound 0.0949 µM, first compound 1 µM
[49] = second compound 0.3 µM, first compound 0.0316 µM
[50] = second compound 0.3 µM, first compound 0.1 µM
[51] = second compound 0.3 µM, first compound 0.316 µM
[52] = second compound 0.3 µM, first compound 1 µM
[53] = second compound 0.949 µM, first compound 0.0316 µM
[54] = second compound 0.949 µM, first compound 0.1 µM
[55] = second compound 0.949 µM, first compound 0.316 µM
[56] = second compound 0.949 µM, first compound 1 µM
[57] = second compound 3 µM, first compound 0.0316 µM
[58] = second compound 3 µM, first compound 0.1 µM
[59] = second compound 3 µM, first compound 0.316 µM
[60] = second compound 3 µM, first compound 1 µM

CCN1CCN(Cc2ccc(Nc3ncc(F)c(-c4cc(F)c5nc(C)n(C(C)C)c5c4)n3)nc2)CC1 + Cc1c(S(C)(=O)=O)c(-c2cc(F)cc(N3CCN(c4ccc(NS(=O)(=O)c5ccc(NC(CCN6CCC(C(=O)OCCCP(=O)(O)O)CC6)CSc6ccccc6)c(S(=O)(=O)C(F)(F)F)c5)cc4)CC3)c2)c(-c2ccc(Cl)cc2)n1C(C)C
IC50 [1]: > 1000 nM
IC50 [2]: > 1000 nM
IC50 [3]: > 1000 nM
IC50 [4]: > 1000 nM
IC50 [5]: > 1000 nM
viability, T/C [6]: 101%
viability, T/C [7]: 95.4%
viability, T/C [8]: 101%
viability, T/C [9]: 104%
viability, T/C [10]: 102%
viability, T/C [11]: 109%
viability, T/C [12]: 94.1%
viability, T/C [13]: 102%
viability, T/C [14]: 92.6%
viability, T/C [15]: 104%
viability, T/C [16]: 104%
viability, T/C [17]: 113%
viability, T/C [18]: 92.2%
viability, T/C [19]: 91.7%
viability, T/C [20]: 92.2%
viability, T/C [21]: 102%
viability, T/C [22]: 104%
viability, T/C [23]: 105%
viability, T/C [24]: 90.2%
viability, T/C [25]: 88.8%
viability, T/C [26]: 80.1%
viability, T/C [27]: 85.3%
viability, T/C [28]: 93.1%
viability, T/C [29]: 86%
viability, T/C [30]: 77.2%
viability, T/C [31]: 76.2%
viability, T/C [32]: 81.4%
viability, T/C [33]: 83.6%
viability, T/C [34]: 86.2%
viability, T/C [35]: 80.8%

O=C(c1ccc(F)c(F)c1Nc1ccc(I)cc1F)N1CC(O)([C@@H]2CCCCN2)C1 + CCN1C(C(=O)NC23CCC(C(=O)O)(CC2)CC3)C(c2cccc(Cl)c2F)C2(C(=O)Nc3cc(Cl)ccc32)C12CCCCC2
IC50 [36]: > 1000 nM
IC50 [37]: > 1000 nM
IC50 [38]: > 1000 nM
IC50 [39]: > 1000 nM
IC50 [40]: > 1000 nM
viability, T/C (second compound 0.03 µM, first compound 0.00316 µM): 107%
viability, T/C (second compound 0.03 µM, first compound 0.01 µM): 110%
viability, T/C [41]: 101%
viability, T/C [42]: 111%
viability, T/C [43]: 123%
viability, T/C [44]: 157%
viability, T/C (second compound 0.0949 µM, first compound 0.00316 µM): 105%
viability, T/C (second compound 0.0949 µM, first compound 0.01 µM): 121%
viability, T/C [45]: 108%
viability, T/C [46]: 112%
viability, T/C [47]: 127%
viability, T/C [48]: 131%
viability, T/C (second compound 0.3 µM, first compound 0.00316 µM): 104%
viability, T/C (second compound 0.3 µM, first compound 0.01 µM): 114%
viability, T/C [49]: 123%
viability, T/C [50]: 115%
viability, T/C [51]: 125%
viability, T/C [52]: 122%
viability, T/C (second compound 0.949 µM, first compound 0.00316 µM): 115%
viability, T/C (second compound 0.949 µM, first compound 0.01 µM): 120%
viability, T/C [53]: 125%
viability, T/C [54]: 120%
viability, T/C [55]: 145%
viability, T/C [56]: 144%
viability, T/C (second compound 3 µM, first compound 0.00316 µM): 124%
viability, T/C (second compound 3 µM, first compound 0.01 µM): 123%
viability, T/C [57]: 126%
viability, T/C [58]: 121%
viability, T/C [59]: 136%
viability, T/C [60]: 154%

O=C(c1cc(Cc2n[nH]c(=O)c3ccccc23)ccc1F)N1CCN(C(=O)C2CC2)CC1
viability, T/C (compound 0.0316 µM): 94% and 96.9%
viability, T/C (compound 0.1 µM): 96.5% and 113%
viability, T/C (compound 0.316 µM): 101% and 94.4%
viability, T/C (compound 1 µM): 99.6% and 101%
viability, T/C (compound 3.16 µM): 96.3% and 102%
viability, T/C (compound 10 µM): 97.1% and 97.2%
IC50 (curve of compound): > 10000 nM

C=C(F)C(=O)N1CCN(c2nc(OCC3CCCN3C)nc3c2CCN(c2cccc4cccc(Cl)c24)C3)CC1CC#N (centres undefined) + CCN1C(C(=O)NC23CCC(C(=O)O)(CC2)CC3)C(c2cccc(Cl)c2F)C2(C(=O)Nc3cc(Cl)ccc32)C12CCCCC2
IC50 [36]: > 10000 nM
IC50 [37]: > 10000 nM
IC50 [38]: > 10000 nM
IC50 [39]: > 10000 nM
IC50 [40]: > 10000 nM
viability, T/C [41]: 124%
viability, T/C [42]: 106%
viability, T/C [43]: 108%
viability, T/C [44]: 102%
viability, T/C (second compound 0.03 µM, first compound 3.16 µM): 108%
viability, T/C (second compound 0.03 µM, first compound 10 µM): 93.2%
viability, T/C [45]: 112%
viability, T/C [46]: 107%
viability, T/C [47]: 113%
viability, T/C [48]: 101%
viability, T/C (second compound 0.0949 µM, first compound 3.16 µM): 109%
viability, T/C (second compound 0.0949 µM, first compound 10 µM): 96.2%
viability, T/C [49]: 108%
viability, T/C [50]: 114%
viability, T/C [51]: 103%
viability, T/C [52]: 115%
viability, T/C (second compound 0.3 µM, first compound 3.16 µM): 110%
viability, T/C (second compound 0.3 µM, first compound 10 µM): 98.1%
viability, T/C [53]: 115%
viability, T/C [54]: 119%
viability, T/C [55]: 117%
viability, T/C [56]: 106%
viability, T/C (second compound 0.949 µM, first compound 3.16 µM): 114%
viability, T/C (second compound 0.949 µM, first compound 10 µM): 105%
viability, T/C [57]: 135%
viability, T/C [58]: 119%
viability, T/C [59]: 117%
viability, T/C [60]: 120%
viability, T/C (second compound 3 µM, first compound 3.16 µM): 112%
viability, T/C (second compound 3 µM, first compound 10 µM): 114%

COc1c(OCCCN2CCOCC2)ccc2c3n(c(=NC(=O)c4cnc(N)nc4)nc12)CCN3 + Cc1c(S(C)(=O)=O)c(-c2cc(F)cc(N3CCN(c4ccc(NS(=O)(=O)c5ccc(NC(CCN6CCC(C(=O)OCCCP(=O)(O)O)CC6)CSc6ccccc6)c(S(=O)(=O)C(F)(F)F)c5)cc4)CC3)c2)c(-c2ccc(Cl)cc2)n1C(C)C
IC50 [1]: > 1000 nM
IC50 [2]: > 1000 nM
IC50 [3]: 286 nM
IC50 [4]: 225 nM
IC50 [5]: 132 nM
viability, T/C [6]: 96.6%
viability, T/C [7]: 88.3%
viability, T/C [8]: 76.4%
viability, T/C [9]: 77.5%
viability, T/C [10]: 59.7%
viability, T/C [11]: 50.8%
viability, T/C [12]: 90.6%
viability, T/C [13]: 86.8%
viability, T/C [14]: 82.3%
viability, T/C [15]: 62.7%
viability, T/C [16]: 57.9%
viability, T/C [17]: 50.7%
viability, T/C [18]: 88.8%
viability, T/C [19]: 86.5%
viability, T/C [20]: 74.6%
viability, T/C [21]: 60.5%
viability, T/C [22]: 49.3%
viability, T/C [23]: 43.9%
viability, T/C [24]: 80%
viability, T/C [25]: 88.7%
viability, T/C [26]: 72.3%
viability, T/C [27]: 62.8%
viability, T/C [28]: 44.8%
viability, T/C [29]: 37.4%
viability, T/C [30]: 74.2%
viability, T/C [31]: 80.1%
viability, T/C [32]: 65.7%
viability, T/C [33]: 52.6%
viability, T/C [34]: 41.5%
viability, T/C [35]: 32.3%

NC1CCC(NC2CC2c2ccccc2)CC1 (centres undefined)
viability, T/C (compound 0.000316 µM): 103% and 108% and 100%
viability, T/C (compound 0.001 µM): 93.8% and 106% and 108%
viability, T/C (compound 0.00316 µM): 108% (2×) and 97.2%
viability, T/C (compound 0.01 µM): 93% and 98.4% and 103%
viability, T/C (compound 0.0316 µM): 99.4% and 105% and 114%
viability, T/C (compound 0.1 µM): 92.6% and 112% and 92.1%
IC50 (curve of compound): > 100 nM
